Values of other authors in PMC5377275 (ACS Omega, 2017).

Tested on: cytosolic lysates

**Q.** Which “Effect of inhibitor on ubiquitination of KGSYGK(FAM)RRR” value does the source give for O=C(O)COc1ccc(Br)cc1/C=C1\SC(=S)N(Cc2cccnc2)C1=O [SKPin C1] here?
**A.** The value was “impaired”.

**Q.** With O=C1c2ccccc2-c2nc3nonc3nc21 [SMER3] as the compound, how does the “Effect of inhibitor on ubiquitination of KGSYGK(FAM)RRR” value read?
**A.** The value was “impaired”.

**Q.** For KGSYGK(FAM)RRR, which “Ubiquitination of p53/MDM2-based peptide in cytosolic lysates” value is on record?
**A.** The value was “readily ubiquitinated”.

**Q.** For RRRG, which “Ubiquitination of primary degron in HeLa cell lysates” value (lysine residue positioned at the C-terminus) is on record?
**A.** The value was “rapidly ubiquitinated”.
